Assay results published in ChEMBL document CHEMBL1156829 (Proc Natl Acad Sci U S A, 2008).

Columns and labels:
Plasmodium falciparum [1] = test: NOVARTIS: Inhibition of Plasmodium falciparum 3D7 (drug-susceptible) proliferation in erythrocyte-based infection assay; format: functional, organism-based; details: Plasmodium falciparum, 3D7
Plasmodium falciparum [2] = test: NOVARTIS: Inhibition of Plasmodium falciparum W2 (drug-resistant) proliferation in erythrocyte-based infection assay; format: functional, organism-based; details: Plasmodium falciparum, W2; read-out: EC50
[3] = NOVARTIS: Cytotoxicity against human hepatocellular carcinoma cell line (Huh7); format: toxicity, cell-based, Huh-7; details: Huh7 cells (hepatocellular carcinoma cell line)

| SMILES | EC50 (Plasmodium falciparum [1]) [nM] | EC50 (Plasmodium falciparum [2]) [nM] | CC50 [3] [nM] |
| --- | --- | --- | --- |
| OC1(c2ccc3ccccc3c2)c2c(c3ccccc3c3ccccc23)C2=NCCN21 (centres undefined) | 252 | 281 | > 10000 |
| C[n+]1c2ccccc2nc2ccc(NC3CCCCC3N)cc21.[O-][Cl+3]([O-])([O-])[O-] (centres undefined) | 256 | 122 | 4210 |
| COc1cc(NCCCC(C)N)c2ncccc2c1 (centres undefined) | 215 | 418 | 14400 |
| COc1cccc(NC(=O)c2ccc(NCCCN3CCC(C)CC3)c([N+](=O)[O-])c2)c1 | 296 | 521 | 18700 |
| O=C(Nc1cccc(Cl)c1)c1cc2ccccc2cc1O | 545 | 229 | 7890 |
| C=C(C[N+](C)(C)C)c1ccc([N+](=O)[O-])cc1 | 317 | 279 | > 10000 |
| O=C(/C=C/c1ccccc1)Nc1ccccc1C(=O)Nc1ccc(-c2nc3ccc(NC(=O)c4ccccc4NC(=O)/C=C/c4ccccc4)cc3[nH]2)cc1 | 347 | 382 | > 13300 |
| OC(CN1CCN(C2c3ccccc3-c3ccccc32)CC1)Cn1c2ccc(Cl)cc2c2cc(Cl)ccc21 (centres undefined) | 1200 | 278 | > 10000 |
| Cc1cc(C)c(CSc2ncnc3[nH]cnc23)c(C)c1 | > 1520 | > 278 | > 10000 |
| COc1ccc(-n2c(S)nnc2CNc2cccc(C(F)(F)F)c2)cc1 | 4860 | 2910 | > 100000 |
| CCOC(=O)c1c(NC(=O)C(C)Sc2ncnc3c2oc2ccccc23)sc2c1CCC2 (centres undefined) | > 8810 | 2900 | > 100000 |
| CCN(CC)S(=O)(=O)c1cc(S(=O)(=O)c2ccc(Cl)c(S(=O)(=O)N(CC)CC)c2)ccc1Cl | > 927 | > 278 | > 10000 |
| O=C(Nc1ccc(Oc2ccc(OC(F)(F)F)cc2)cc1)C1CC1 | 1670 | 2770 | > 100000 |
| CCN(CCN1CCN(S(=O)(=O)c2cc(Cl)ccc2Cl)CC1)CC1=CCC2CC1C2(C)C (centres undefined) | 1790 | 289 | > 10000 |
| CC(NCCCN(C)C)c1cc(C(C)(C)C)cc2c1CCC2(C)C (centres undefined) | 620 | 179 | 6220 |
| COC(CNC(=O)c1c[nH]c2ccc(S(=O)(=O)N3CCN(C)CC3)cc2c1=O)OC | > 12500 | 2860 | > 100000 |
| CN(CCCNc1ccnc2cc(Cl)ccc12)C(=O)/C=C/c1ccccc1 | 371 | 286 | > 10000 |
| CC(=O)Nc1ccc2c(c1)C(=O)N(C(C(=O)NCC(=O)O)C1CC1)[C@@H](CCC(=O)O)C(=O)N2 (some centres undefined) | 1260 | 280 | > 10000 |
| CCCOC(=O)C1=C(C)NC2=C(C(=O)CCC2)C1c1cc(Br)c(O)c(OCC)c1 (centres undefined) | > 12500 | 2820 | > 100000 |
| Cn1c(SCc2cccc([N+](=O)[O-])c2)nc2c(c1=O)SCC2 | 3280 | 2790 | > 100000 |
| CCN(CC)c1scc(-c2ccc(Cl)cc2)[s+]1 | 303 | 725 | 25400 |
| CN(CCCNc1ccnc2cc(Cl)ccc12)C(=O)c1ccc(Cl)c([N+](=O)[O-])c1 | 137 | 226 | > 7920 |
| O=[N+]([O-])c1ccc(S(=O)(=O)NCCCCNc2ccnc3cc(Cl)ccc23)cc1 | 934 | 275 | 9670 |
| O=C(O)c1c(F)cccc1Cl | > 7730 | 2850 | > 100000 |
| COc1ccc2sc(Nc3nc(-c4ccccn4)cs3)nc2c1 | 118 | 125 | 4400 |
| CNC(=O)c1nn(C)c2c1CC(NCC1CCCCC1)CC2 (centres undefined) | > 12500 | 2830 | > 100000 |
| CCCC(=O)O[C@]1(C(=O)CCl)[C@@H](C)CC2C3CCC4=CC(=O)C=C[C@]4(C)[C@@]3(F)C(=O)C[C@@]21C (some centres undefined) | 1680 | 283 | > 10000 |

| SMILES | EC50 (Plasmodium falciparum [1]) [nM] | EC50 (Plasmodium falciparum [2]) [nM] | CC50 [3] [nM] |
| --- | --- | --- | --- |
| CCC(C)(C)c1ccc(OCCCC[n+]2cccc(C)c2C)c(C(C)(C)CC)c1 | 495 | 430 | 15200 |
| O=C(C1=C(O)C(=O)N(CCCn2ccnc2)C1c1ccccc1[N+](=O)[O-])c1ccccc1 (centres undefined) | > 12500 | 2830 | > 100000 |
| CCN1CCN(C(=O)Nc2ccc(Cc3ccc(NC(=O)N4CCN(CC)CC4)cc3)cc2)CC1 | 2390 | 1720 | 62000 |
| Nc1cccc(Oc2ccc3c(c2)C(=O)N(c2cccc(C(=O)O)c2)C3=O)c1 | > 1250 | > 277 | > 10000 |
| c1ccc(-c2nc3cc4ccccc4cc3nc2-c2ccsc2)cc1 | 3440 | 2830 | > 100000 |
| CCN1c2ccccc2N=C2C=CC(N)=CC21 (centres undefined) | 59.6 | 278 | > 10000 |
| Cc1ncc(CN2CCC(C(=O)Nc3ccc(-n4cccn4)cc3)CC2)s1 | 3190 | 2830 | > 100000 |
| COC(=O)C1CCCN1S(=O)(=O)c1ccc2ccccc2c1 (centres undefined) | > 4940 | 2820 | > 100000 |
| COc1ccc(OC(C)=O)c(C=NNC(=O)C(C)Oc2ccccc2Br)c1 (centres undefined) | 5100 | 2800 | > 100000 |
| CN1CCc2c(sc3nc(SCC(=O)NCCc4ccccc4)n(-c4ccc(Cl)cc4)c(=O)c23)C1 | 1310 | 1910 | 68500 |
| FC(F)(F)COc1nc(N2CCCCC2)nc(N(c2ccccc2)c2ccccc2)n1 | > 5970 | 2790 | > 100000 |
| COc1ccc(CN(Cc2cc3cc(OC)c(OC)cc3[nH]c2=O)C(=S)NCCc2ccc(OC)c(OC)c2)cc1 | 5580 | 1040 | 35700 |
| COc1ccc(NC(=O)CCCCCn2c(SCc3cc(=O)oc4cc(O)ccc34)nc3ccsc3c2=O)cc1 | 5820 | 2870 | > 100000 |
| COc1ccccc1CNC(=O)c1nn(-c2ccc(Cl)cc2)c(=O)c2ccccc12 | 1090 | 2820 | > 100000 |
| Cn1c(C(OCC(=O)N2CCN(Cc3ccccc3)CC2)c2cccnc2)cc2ccccc21 (centres undefined) | 2250 | 1100 | 38100 |
| CC(C(=O)N1CCN(C(c2ccccc2)c2ccccc2)CC1)N(CCN1CCOCC1)S(=O)(=O)c1ccccn1 (centres undefined) | > 819 | 287 | > 10000 |
| CC(NCCC(c1ccccc1)c1ccccc1O)c1ccccc1 (centres undefined) | 1120 | 277 | > 10000 |
| COc1ccc(/C=C2/SC(=N)N(c3ccccc3OC)C2=O)cc1 | 350 | 291 | > 10000 |
| CN(CCCNc1ccnc2cc(Cl)ccc12)C(=O)COc1ccccc1 | 98.3 | 286 | > 10000 |
| CCN1/C(=C/c2ccc3ccccc3[n+]2CC)Sc2sc3ccccc3c21 | 99.2 | 134 | 4770 |
| C=C[C@H]1CN2CC[C@H]1C[C@H]2[C@H](OC(=O)CCC)c1ccnc2ccccc12 | 335 | 286 | > 10000 |
| COc1ccc(CCN2C(=O)CC(C(=O)Nc3cccc(Cl)c3)SC2=Nc2ccccc2)cc1OC (centres undefined) | 3820 | 2840 | > 100000 |
| COc1ccc(C(=O)Oc2ccccc2-c2nc3cc(C)ccn3c2NC(C)(C)CC(C)(C)C)c(OC)c1 | 1630 | 283 | > 10000 |
| CC(C)c1ccc(NC(=O)c2ccc(NCCCN3CCN(c4cccc(Cl)c4)CC3)c([N+](=O)[O-])c2)cc1 | 1630 | 2810 | > 100000 |
| CCOc1ccc2nc(NCCNC(=O)c3ccco3)c(C)cc2c1 | > 1250 | > 279 | > 10000 |
| CCCCN(C(=O)c1ccccc1C)c1nc(-c2cc(OC)ccc2OC)cs1 | 1720 | 2860 | > 100000 |
